Activity data for one compound are collected here from ChEMBL document CHEMBL1151725, “A cell wall-active lipopeptide from the fungus Pochonia bulbillosa” (2008).

In this assay the test system is Neurospora crassa. Description: Antifungal activity against Neurospora crassa os-1 mutant assessed as zone of protoplast production at 600 ng/disk after 36 to 48 hrs by microscopic examination. It is filed as functional.

Regarding `CCCCCCCCCC(O)CCCC(=O)N[C@H](C(=O)N[C@H](C)C(=O)N[C@@H](C)C(=O)N[C@@H](C)C(=O)N[C@H](Cc1ccc(O)cc1)C(=O)N[C@H](C(=O)O)C(C)C)[C@@H](C)O` (stereo partly specified), the Activity was 20 mm.
